# Results: patent US9260439B2, “Dihydropyrrolopyrimidine derivatives” (PFIZER INC., priority 2014, dated 2016)
# Counter-ions that a name gives are not always drawn.
# Biological target: truncated PI3Kα (p110α/iSH2 p85α) (Homo sapiens (Human), UniProt P42336)
# Experiment: PI3KA_Act fluorescence polarization kinase assay (Ki)
# Assay type: biochemical
# Details: 1 mM ATP
# Text: 2) p110α-iSH2 p85α Complex (Full Length p110α and p85α iSH2)(“PI3KA_Act”)
# Genes encoding for full length p110α and p85α nSH-iSH2=niSH2 (p85a aminoacids 322-600) subunits of PI3Kα complex were subcloned from existing constructs into pFASTBAC Dual vector (Life Technologies, Carlsbad, Calif.) using standard cloning procedures. Gene encoding p110α subunit was subcloned into polyhedrine promoter while gene encoding p85α niSH2 domains was subcloned into p10 promoter. Additionally, Human Rhinovirus 3C Protease (“HRV 3C”) site was introduced between nSH2 and iSH2, replacing aminoacids 431-438 of p85α with […] HRV 3C recognition sequence, using standard QuickChange mutagenesis protocol (Agilent Technologies, CA). Recombinant baculovirus was generated using Bac-to-Bac protocol (Life Technologies, Carlsbad, Calif.). Large scale expression was conducted in Sf21 (Life Technologies, Carlsbad, Calif.) cells at a multiplicity of infection (“MOI”)=1 for 48 hours. Cells were lyzed in 50 mM Tris pH 8.0, 250 mM NaCl, 5% glycerol, 0.25 mM TCEP, and 20 mM imidazole. The p110α-niSH2 p85α complex was purified from clarified supernatant using Immobilized Metalo Affinity Chromatography (“IMAC”). The protein was eluted from the column using 50 mM Tris pH 8.0, 200 mM NaCl, 0.25 mM TCEP, and 200 mM imidazole. Following elution p110α-niSH2 p85α complex was dialyzed against 4 liters of 50 mM Tris pH 8.0, 200 mM NaCl, 0.25 mM TCEP, and 40 mM imidazole in the presence of PreScission Protease (1:70 molar ratio of Protease to Protein) and TEV protease (1:40 molar ratio protease to protein) for 16 hours at 4° C. The protein was further purified using reverse IMAC to remove cleaved histidine tag and contaminants captured during initial IMAC purification. The mixture of p110α-iSH2 p85α complex and cleaved nSH2 was recovered in reverse IMAC 40 mM imidazole flow through and 60 mM imidazole wash fractions. Those fractions were pulled together and loaded on Superdex 200 26/60 SEC column equilibrated in 25 mM Tris, pH 8.0, 100 mM NaCl, 2% glycerol, and 2 mM TCEP. Following SEC, chromatography peak fractions containing p110α-iSH2 p85α complex were pulled and concentrated to 4.3 mg/mL. Purity and integrity of the complex was confirmed using LCMS, analytical SEC and SDS-PAGE (sodium dodecyl sulfate polyacrylamide gel electrophoresis) analysis.
# The biochemical assays of kinase activity of full-length PI3Kα (full-length p110α/p85a) or truncated PI3Kα (p110α/iSH2 p85a) were conducted using a fluorescence polarization format similar to the procedure of Yuan J., et al., (2011) “PF-04691502, a Potent and Selective Oral Inhibitor of PI3K and mTOR Kinases with Antitumor Activity”, Mol Cancer Ther. 10, 2189-2199. The enzymatic reactions were conducted in 50 μL volumes in 96-well plates. The reactions contained human recombinant PI3Kα (2 nM full-length p110α/p85α or 0.5 nM p110α/iSH2 p85) and 30 μM phosphatidylinositol 4,5-bisphosphate (“PIP2”) (Cayman Chemical Company, Ann Arbor, Mich.) and were sonicated for 1 minute prior to adding PI3Kα enzyme (PI3KA_Act or PI3KA_FL), DMSO or test compound (12-point 3-fold serial dilution, 3 μM top dose, 2° A) DMSO final concentration), 5 mM MgCl2, 50 mM HEPES pH 7.4, 150 mM NaCl, 1 mM DTT ((2S,3S)-1,4-bis(sulfanyl)butane-2,3-diol), and 0.05% 3-[(3-cholamidopropyl)dimethylammonio]-1-propanesulfonate (“CHAPS”). […] The reactions were incubated for 30 min at room temperature, stopped with EDTA pH 8 (10 mM final concentration). In a detection plate, 15 μL of detector/probe mixture, containing 480 nM GST-Grp1 PH domain protein (University of Dundee, Dundee, UK) and 12 nM carboxytetramethylrhodamine (“TAMRA”)-tagged fluorescent phosphatidylinositol (3,4,5)-triphosphate (“PIP3”) (Echelon Biosciences, Inc., Salt Lake City, Utah) in assay buffer, was mixed with 15 μL of kinase reaction mixture. The plate was shaken for 30 minutes and fluorescence polarization values were measured on an LJL Analyst HT plate reader (Molecular Devices, Sunnyvale, Calif.). […]
# truncated PI3Kα (p110α/iSH2 p85α), sequence (P42336 whole entry, the tested form may be a part): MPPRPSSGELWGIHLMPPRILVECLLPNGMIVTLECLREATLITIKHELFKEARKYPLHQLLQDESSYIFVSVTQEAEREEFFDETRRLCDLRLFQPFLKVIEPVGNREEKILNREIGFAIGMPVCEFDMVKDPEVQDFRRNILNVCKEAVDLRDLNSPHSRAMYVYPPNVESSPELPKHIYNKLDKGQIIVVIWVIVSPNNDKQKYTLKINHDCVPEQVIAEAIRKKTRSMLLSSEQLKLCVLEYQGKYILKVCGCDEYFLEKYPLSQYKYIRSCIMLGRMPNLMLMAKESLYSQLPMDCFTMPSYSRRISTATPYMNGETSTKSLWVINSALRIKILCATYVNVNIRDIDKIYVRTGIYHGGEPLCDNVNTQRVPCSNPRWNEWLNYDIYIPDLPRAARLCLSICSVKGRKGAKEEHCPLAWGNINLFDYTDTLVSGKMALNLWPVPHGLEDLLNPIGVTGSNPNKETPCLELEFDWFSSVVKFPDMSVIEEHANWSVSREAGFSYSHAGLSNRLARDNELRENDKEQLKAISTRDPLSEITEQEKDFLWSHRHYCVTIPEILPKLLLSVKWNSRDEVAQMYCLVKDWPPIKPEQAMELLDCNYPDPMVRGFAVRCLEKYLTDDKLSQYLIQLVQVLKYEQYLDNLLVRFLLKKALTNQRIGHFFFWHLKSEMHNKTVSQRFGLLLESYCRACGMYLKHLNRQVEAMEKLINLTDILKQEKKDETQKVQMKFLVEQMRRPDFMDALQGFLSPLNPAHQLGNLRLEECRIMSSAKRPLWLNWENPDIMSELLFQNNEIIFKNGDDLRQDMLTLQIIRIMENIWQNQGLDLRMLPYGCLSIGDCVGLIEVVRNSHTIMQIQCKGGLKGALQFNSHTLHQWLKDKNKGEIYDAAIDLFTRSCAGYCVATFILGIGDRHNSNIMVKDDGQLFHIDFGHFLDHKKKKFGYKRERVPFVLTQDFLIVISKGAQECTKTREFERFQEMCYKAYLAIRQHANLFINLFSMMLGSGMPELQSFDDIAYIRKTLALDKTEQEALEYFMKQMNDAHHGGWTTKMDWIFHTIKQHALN
Structure (SMILES),PI3KA_Act Ki,Ki
CC(=O)N1CC[C@@](C)(N2CCc3c(-c4cnc(N)nc4)nc(N4CCOCC4)nc32)C1 [Example 211],0.078 nM,
"CC[C@@]1(N2CCc3c(-c4cnc(N)nc4)nc(N4CCOCC4)nc32)CCN(C(=O)C(C)(C)N)C1.Cl [Example 284, 2-amino-1-{(3R)-3-[4-(2-aminopyrimidin-5-yl)-2-(morpholin-4-yl)-5,6-dihydro-7H-pyrrolo[2,3-d]pyrimidin-7-yl]-3-ethylpyrrolidin-1-yl}-2-methylpropan-1-one hydrochloride]",0.368 nM,
"C[C@]1(N2CCc3c(-c4cnc(N)nc4)nc(N4CCOCC4)nc32)CCN(C(=O)C2(N)CC2)C1.Cl [Example 340, (1-aminocyclopropyl) {(3S)-3-[4-(2-aminopyrimidin-5-yl)-2-(morpholin-4-yl)-5,6-dihydro-7H-pyrrolo[2,3-d]pyrimidin-7-yl]-3-methylpyrrolidin-1-yl}methanone hydrochloride]",0.234 nM,
"C[C@]1(N2CCc3c(-c4cnc(N)nc4)nc(N4CCOCC4)nc32)CCN(CC(N)=O)C1 [Example 399, 2-{(3S)-3-[4-(2-aminopyrimidin-5-yl)-2-(morpholin-4-yl)-5,6-dihydro-7H-pyrrolo[2,3-d]pyrimidin-7-yl]-3-methylpyrrolidin-1-yl}acetamide]",0.074 nM,
"C[C@H]1COCCN1c1nc(-c2cnc(N)nc2)c2c(n1)N(C1(C)CCCN(C(=O)OC(C)(C)C)C1)CC2 (stereo partly drawn) [Example 520, tert-butyl 3-{4-(2-aminopyrimidin-5-yl)-2-[(3S)-3-methylmorpholin-4-yl]-5,6-dihydro-7H-pyrrolo[2,3-d]pyrimidin-7-yl}-3-methylpiperidine-1-carboxylate]",0.663 nM,
"C[C@]1(N2CCc3c(-c4cnc(N)nc4)nc(N4CCOCC4)nc32)CCN(C(=O)OC2CNC2)C1.Cl [Example 415, azetidin-3-yl (3S)-3-[4-(2-aminopyrimidin-5-yl)-2-(morpholin-4-yl)-5,6-dihydro-7H-pyrrolo[2,3-d]pyrimidin-7-yl]-3-methylpyrrolidine-1-carboxylate hydrochloride]",<0.018 nM,
"CC(C)[C@H](N)C(=O)N1CC[C@](C)(N2CCc3c(-c4cnc(N)nc4)nc(N4CCOCC4)nc32)C1.Cl [Example 288, (2S)-2-amino-1-{(3S)-3-[4-(2-aminopyrimidin-5-yl)-2-(morpholin-4-yl)-5,6-dihydro-7H-pyrrolo[2,3-d]pyrimidin-7-yl]-3-methylpyrrolidin-1-yl}-3-methylbutan-1-one hydrochloride]",0.141 nM,
"CC(C)(N)C(=O)N1CC[C@H](N2CCc3c(-c4cnc(N)nc4)nc(N4CCOCC4)nc32)C1.Cl [Example 283, 2-amino-1-{(3S)-3-[4-(2-aminopyrimidin-5-yl)-2-(morpholin-4-yl)-5,6-dihydro-7H-pyrrolo[2,3-d]pyrimidin-7-yl]pyrrolidin-1-yl}-2-methylpropan-1-one hydrochloride]",0.208 nM,
C[C@@H]1COCCN1c1nc(-c2cnc(N)nc2)c2c(n1)N([C@]1(C)CCN(C(=O)OC(C)(C)C)C1)CC2 [Example 230],6.996 nM,
"CCNC(=O)N1CC[C@](C)(N2CCc3c(-c4cnc(N)nc4)nc(N4CCOCC4)nc32)C1 [Example 507, (3S)-3-[4-(2-aminopyrimidin-5-yl)-2-(morpholin-4-yl)-5,6-dihydro-7H-pyrrolo[2,3-d]pyrimidin-7-yl]-N-ethyl-3-methylpyrrolidine-1-carboxamide]",,0.082 nM

# Same assay, conditions: 1 mM ATP, hydrochloride
row,Structure (SMILES),PI3KA_Act Ki
1,"C[C@H]1COCCN1c1nc(-c2cnc(N)nc2)c2c(n1)N([C@@]1(C)CCN(C(=O)C3(N)CCOC3)C1)CC2 (single isomer, unassigned) [Example 503, hydrochloride]",0.091 nM
